This passage reports EC50 results from patent US20240116962A1, “PYRIDINE-2-AMINE DERIVATIVE AND PHARMACEUTICAL COMPOSITION AND USE THEREOF” (TSINGHUA UNIVERSITY, priority 2020, published 2024).

Structures are written as SMILES. Where two headings read alike, the source gives them in different places.

The target in one experiment is T1, hTLR7 (Homo sapiens, UniProt Q9NYK1).
T1 construct: host or cells: HEK-Blue hTLR7 (HEK293-derived reporter cells with SEAP read-out)
T1 sequence (Q9NYK1 27-1049): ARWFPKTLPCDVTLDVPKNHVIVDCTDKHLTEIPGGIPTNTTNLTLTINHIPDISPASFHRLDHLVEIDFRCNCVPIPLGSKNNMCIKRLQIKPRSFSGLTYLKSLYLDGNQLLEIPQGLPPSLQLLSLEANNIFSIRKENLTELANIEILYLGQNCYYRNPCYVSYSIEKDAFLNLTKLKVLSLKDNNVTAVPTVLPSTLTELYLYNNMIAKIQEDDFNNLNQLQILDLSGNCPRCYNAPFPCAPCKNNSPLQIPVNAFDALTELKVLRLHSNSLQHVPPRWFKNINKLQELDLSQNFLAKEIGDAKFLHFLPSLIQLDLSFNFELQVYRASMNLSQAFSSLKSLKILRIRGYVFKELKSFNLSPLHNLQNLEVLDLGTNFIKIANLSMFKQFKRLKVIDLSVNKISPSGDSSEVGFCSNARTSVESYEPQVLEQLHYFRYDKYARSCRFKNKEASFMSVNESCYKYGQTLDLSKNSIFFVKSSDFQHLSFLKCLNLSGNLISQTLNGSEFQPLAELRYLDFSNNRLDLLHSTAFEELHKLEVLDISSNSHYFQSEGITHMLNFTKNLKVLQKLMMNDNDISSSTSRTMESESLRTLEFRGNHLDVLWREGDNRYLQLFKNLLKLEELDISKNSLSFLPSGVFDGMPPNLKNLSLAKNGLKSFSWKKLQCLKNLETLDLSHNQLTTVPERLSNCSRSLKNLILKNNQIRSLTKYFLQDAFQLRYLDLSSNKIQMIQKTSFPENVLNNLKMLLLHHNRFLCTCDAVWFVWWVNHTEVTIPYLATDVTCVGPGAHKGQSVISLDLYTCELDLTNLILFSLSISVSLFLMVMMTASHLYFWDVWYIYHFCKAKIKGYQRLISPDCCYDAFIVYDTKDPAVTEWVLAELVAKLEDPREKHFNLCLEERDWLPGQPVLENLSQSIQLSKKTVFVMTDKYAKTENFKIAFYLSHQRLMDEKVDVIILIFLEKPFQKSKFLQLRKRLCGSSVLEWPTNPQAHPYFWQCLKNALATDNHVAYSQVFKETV
The experiment in a line: EC50 assay for small molecule agonists, HEK-Blue hTLR7 cells, SEAP readout. The format is cell-based. The conditions noted are these: agonist activity, nd = EC50 larger than 25 μM. As to the method:
(§1) Reagents used for cell culture and detection for HEK-Blue™ hTLR7, HEK-Blue™ hTLR8 and control HEK-Blue Nu112k were as follows: DMEM (4.5 g/L glucose), bovine serum FBS, streptomycin ([…]), penicillin (50 U/mL), Blasticidin (10 mg/mL), Zeocin™ (10 mg/mL), Normocin (50 mg/mL), and HEK-Blue™ Detection. Basal medium was as follows: DMEM +10% FBS+streptomycin+penicillin+Normocin ([…]); selective medium for resistance genes was as follows: DMEM+10% FBS+streptomycin+penicillin+Normocin (1001 μg/mL)+Blasticidin (1001 μg/mL)+Zeocin™ (1001 μg/mL).
(§2) Cell preparation: HEK-Blue™ hTLR7 and HEK-Blue™ hTLR8 cell lines were purchased from Invivogen. The cells frozen in liquid nitrogen were taken, quickly placed in a water bath at 37° C., shaken occasionally, and completely melted within 1 min. The cells were transferred to 15 mL of pre-heated basal medium and resuspended; centrifuged at 1,000 r/min for 5 min, supernatant discarded; resuspended with 1 mL of basal medium, transferred to a T25 culture flask, supplemented to 5 mL with the medium, and incubated in an incubator at 37° C.; after stable passage twice, and subjected to selective antibiotic screening: HEK-Blue™ hTLR7 or HEK-Blue™ hTLR8: 100 μg/mL Zeocin+Blasticidin (30 μg/mL), HEK-Blue Nu112-k: 100 μg/mL Zeocin. The fluid was changed 3 times a week. When the number of cells reached 70%-80%, PBS was added, and the cells were exfoliated by gently pipetting.
(§3) Activity assay steps: (1) adding a test sample to a 96-well plate at 20 μL/well (triplicate wells were set); (2) adding 20 μL of positive control (e.g., R848), and adding 20 μL of negative control (e.g., ddH2O); (3) removing a T75 culture flask from the incubator, discarding the medium, adding 5-10 mL of pre-heated PBS, and gently pipetting the cells; adding 2-5 mL of PBS to the culture flask, incubating the culture flask in the incubator for 1-2 min, and then gently pipetting the cells to make them exfoliated; (4) mixing the mixture well, and counting the cells, without centrifugation; resuspending the cells with HEK-Blue™ assay solution and adjusting the cell number, taking care not to incubate for a long time to avoid too deep background or false positive. HEK-Blue hTLR cell number was about 2.2×10^5/mL, 180 μL/well (about 40000 cells), and HEK-Blue Nu112-k cell number was about 2.8×10^5/mL, 180 μL/well (about 50000 cells). (5) incubating the cells in the incubator at 37° C. for 6-16 h, and detecting at 620-655 nm for SEAP readings.
(§4) Effect %=(mean OD of the administration group−mean OD of the H2O group at each concentration)/(mean ODmax of the positive drug group−mean OD of the H2O group)×100. EC50 was calculated by fitting Lg [concentration]-effect curves using GraphPad Prism5 software.
(§5) Experimental results: the concentration for 50% of maximal effect (EC50) refers to a corresponding concentration of small molecules that can cause 50% of the maximal agonistic effect. […] EC50 represents a potency for agonizing the TLR8 receptor, with smaller values indicating better efficacy. […] In the following table, the unit of the agonist activity is nanomole, unless otherwise specified.

The target of another experiment is T2, hTLR8 (Homo sapiens, UniProt Q9NR97).
T2 construct: host or cells: HEK-Blue hTLR8 (HEK293-derived reporter cells with SEAP read-out)
T2 sequence (Q9NR97 27-1041): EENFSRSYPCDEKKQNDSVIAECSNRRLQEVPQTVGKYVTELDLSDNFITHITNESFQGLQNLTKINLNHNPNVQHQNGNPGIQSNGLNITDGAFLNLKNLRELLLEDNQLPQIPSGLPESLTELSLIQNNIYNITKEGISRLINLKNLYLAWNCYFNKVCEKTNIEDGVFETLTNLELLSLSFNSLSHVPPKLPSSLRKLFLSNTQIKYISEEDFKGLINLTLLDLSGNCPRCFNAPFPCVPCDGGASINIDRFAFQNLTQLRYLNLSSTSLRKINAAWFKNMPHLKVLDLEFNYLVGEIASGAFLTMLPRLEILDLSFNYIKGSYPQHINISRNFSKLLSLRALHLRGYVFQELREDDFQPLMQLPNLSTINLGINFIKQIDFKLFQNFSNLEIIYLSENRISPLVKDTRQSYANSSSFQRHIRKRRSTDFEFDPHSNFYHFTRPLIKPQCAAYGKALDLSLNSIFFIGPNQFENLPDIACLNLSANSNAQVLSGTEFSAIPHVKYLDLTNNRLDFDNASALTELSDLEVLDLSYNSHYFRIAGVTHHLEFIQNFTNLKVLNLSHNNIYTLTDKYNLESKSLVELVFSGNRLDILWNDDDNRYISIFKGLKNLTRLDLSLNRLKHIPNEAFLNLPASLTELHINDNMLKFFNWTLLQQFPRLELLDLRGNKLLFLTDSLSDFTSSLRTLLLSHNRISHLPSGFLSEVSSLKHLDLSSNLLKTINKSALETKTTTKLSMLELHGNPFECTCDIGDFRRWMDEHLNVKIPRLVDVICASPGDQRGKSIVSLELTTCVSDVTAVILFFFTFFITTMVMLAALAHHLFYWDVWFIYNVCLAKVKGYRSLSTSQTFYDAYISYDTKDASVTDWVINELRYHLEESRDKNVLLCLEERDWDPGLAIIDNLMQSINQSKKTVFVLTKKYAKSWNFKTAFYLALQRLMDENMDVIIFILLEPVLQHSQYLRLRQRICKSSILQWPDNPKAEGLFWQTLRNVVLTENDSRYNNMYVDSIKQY
The experiment in a line: EC50 assay for small molecule agonists, HEK-Blue hTLR8 cells, SEAP readout. It counts as cell-based. How it is done:
as §1, §2, §3, §4, §5

The mark [1] stands for this setting: agonist activity, read-out: hTLR8(EC50).

Regarding `CCCCCc1cc(Cc2ccc(CN(C)C)cc2OC)c(C)nc1N` [Compound N42], the EC50 was over 25000 nM on hTLR7 and 87 nM on hTLR8 (setting [1]).

Regarding `CCCCCc1cc(Cc2ccc(CN(C)C)cc2OC(C)=O)c(C)nc1N` [Compound N50], the EC50 at hTLR7 was over 25000 nM; at hTLR8 (setting [1]), 105 nM.

As for `CCCCCc1cc(Cc2ccc(CN(C)C)cc2)c(C)nc1N` [Compound N4], the EC50 is over 25000 nM at hTLR7 and 58 nM on hTLR8 (setting [1]).

Turning to `CCCCCc1cc(Cc2ccc(CN3CCN(C)CC3)cc2O)c(C)nc1N` [Compound N49], the EC50 on hTLR7 was over 25000 nM; at hTLR8 (setting [1]), 627 nM.

`CCCCCc1cc(Cc2ccc(C(=O)N(C)C)cc2)c(C)nc1N` [Compound N38]: the figures for the EC50 on hTLR7 and on hTLR8 (setting [1]) were over 25000 nM and over 4000 nM, respectively.

Consider `CCCCCc1cc(Cc2ccc(CN3CCCCCC3)cc2)c(C)nc1N` [Compound N12], for which the figures for the EC50 at hTLR7 and at hTLR8 (setting [1]) were over 25000 nM and 109 nM, respectively.

For `CCCCCc1cc(Cc2ccccc2CO)c(C)nc1N` [Compound N33], the EC50 is over 25000 nM at hTLR7 and over 4000 nM on hTLR8 (setting [1]).

With `CCCCCc1cc(Cc2ccc(CNC)cc2)c(C)nc1N` [Compound N6], the EC50 was over 25000 nM at hTLR7 and 84 nM on hTLR8 (setting [1]).

Turning to `CCCCCc1cc(Cc2ccc(CN3CCN(C)CC3)cc2OC)c(C)nc1N` [Compound N45], the values for the EC50 on hTLR7 and on hTLR8 (setting [1]) were over 25000 nM and 166 nM, respectively.

Regarding `CCCCCc1cc(Cc2ccc(CN3CC[C@H](O)C3)cc2)c(C)nc1N` [Compound N18], the EC50 on hTLR7 was over 25000 nM; at hTLR8 (setting [1]), 124 nM.

Take `CCCCCc1cc(Cc2ccc(CN)cc2)c(C)nc1N` [Compound N5]: the EC50 is over 25000 nM at hTLR7 and 122 nM on hTLR8 (setting [1]).

As to `CCCCCc1cc(Cc2ccc(CN3CC[C@@H](O)C3)cc2)c(C)nc1N` [Compound N19], the values for the EC50 at hTLR7 and on hTLR8 (setting [1]) were over 25000 nM and 104 nM, respectively.

In the case of `CCCCNc1cc(Cc2ccc(CN3CC4(COC4)C3)cc2)c(C)nc1N` [Compound N57], the results for the EC50 on hTLR7 and at hTLR8 (setting [1]) were over 25000 nM and 16 nM, respectively.

As to `CCCCCc1cc(Cc2cccc(CN(C)C)c2)c(C)nc1N` [Compound N32], the EC50 at hTLR7 was over 25000 nM; on hTLR8 (setting [1]) it was 290 nM.

In the case of `CCCCCc1cc(Cc2ccc(CN(C)C)cc2F)c(C)nc1N` [Compound N23], the EC50 on hTLR7 is over 25000 nM; on hTLR8 (setting [1]), 80 nM.

In the case of `CCCCCc1cc(Cc2ccc(CN3CC(O)C3)cc2)c(C)nc1N` [Compound N21], the EC50 was over 25000 nM on hTLR7 and 117 nM at hTLR8 (setting [1]).

In the case of `CCCCCc1cc(Cc2ccc(CN3CCOCC3)cc2OC)c(C)nc1N` [Compound N44], the EC50 at hTLR7 was over 25000 nM; on hTLR8 (setting [1]) it was 1130 nM.

With `CCCCCc1cc(Cc2ccc(CN3CC4(COC4)C3)cc2F)c(C)nc1N` [Compound N24], the EC50 on hTLR7 was over 25000 nM; on hTLR8 (setting [1]), 113 nM.

In the case of `CCCCNc1cc(Cc2ccc(CN3CC4(COC4)C3)cc2F)c(C)nc1N` [Compound N58], the EC50 at hTLR7 was over 25000 nM; on hTLR8 (setting [1]), 40 nM.

For `CCCCCc1cc(Cc2ccc(CN3CCC3)cc2)c(C)nc1N` [Compound N17], the results for the EC50 at hTLR7 and at hTLR8 (setting [1]) were over 25000 nM and 121 nM, respectively.

Turning to `CCCCCc1cc(Cc2ccc(CN3CCOCC3)cc2)c(C)nc1N` [Compound N8], the EC50 at hTLR7 is over 25000 nM; on hTLR8 (setting [1]), 428 nM.

Regarding `CCCCCc1cc(Cc2ccc(CN(C)CC(=O)O)cc2)c(C)nc1N` [Compound N14], the EC50 at hTLR7 was over 25000 nM; on hTLR8 (setting [1]), over 4000 nM.

As to `CCCCCc1cc(Cc2ccc(CN(C)CCC(=O)O)cc2)c(C)nc1N` [Compound N16], the values for the EC50 on hTLR7 and at hTLR8 (setting [1]) were over 25000 nM and over 4000 nM, respectively.

In the case of `CCCCCc1cc(CCc2ccc(CN(C)C)cc2)c(C)nc1N` [Compound N54], the EC50 was over 25000 nM on hTLR7 and 518 nM on hTLR8 (setting [1]).

Regarding `CCCCCc1cc(Cc2ccc(CN(C)CCOCCOCCC(F)(F)P(=O)(OCC)OCC)cc2)c(C)nc1N` [Compound N25], the EC50 on hTLR7 was over 25000 nM; at hTLR8 (setting [1]) it was over 4000 nM.

With `CCCCCc1cc(Cc2ccc(CN3CCCC3)cc2O)c(C)nc1N` [Compound N47], the EC50 at hTLR7 is over 25000 nM; on hTLR8 (setting [1]), 473 nM.

For `CCCCCc1cc(Cc2ccc(CNC3CC3)cc2)c(C)nc1N` [Compound N20], the EC50 on hTLR7 is over 25000 nM; on hTLR8 (setting [1]), 130 nM.

Regarding `CCCCNc1cc(Cc2ccc(CN(C)C)cc2)c(C)nc1N` [Compound N55], the EC50 was over 25000 nM at hTLR7 and 15 nM at hTLR8 (read-out: concentration for 50% of maximal effect (EC50) hTLR8).

Consider `CCCCCc1cc(Cc2ccc(CN(C)CCOCCOCCC(F)(F)P(=O)(O)O)cc2)c(C)nc1N` [Compound N26], for which the figures for the EC50 at hTLR7 and at hTLR8 (setting [1]) were over 25000 nM and over 4000 nM, respectively.
